The target in one data set is T1, p38α (Homo sapiens, UniProt Q16539).
T1 construct: p38 MAP Kinases are recombinant human full-length proteins with an amino-terminal GST fusion; GST (N); purchased Upstate Biotechnology Inc; host or cells: E. coli
Briefly: p38 MAP Kinase assay: inhibition of ATF2 phosphorylation, ELISA. Format: biochemical. The settings on record: for IC50: ATF2 phosphorylation, read-out: [ENZ] P38 ALPHA, IC50, ELISA; for inhibition at 10 µM: substrate ATF2, read-out: [ENZ] P38 ALPHA, PCT INH, ELISA (10 uM;ATF2) (Percent). The method in brief:
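GST-tagged full-length human p38 MAP kinase with GST-ATF2 (aa 19–96; 1.25 μM) and 40 μM ATP in HEPES pH 7.5 buffer, without (Method I) or with (Method II) 1% human serum albumin. Compound pre-incubated 15 min at room temperature; reaction 30 min at 37 °C; ATF2 Thr69 phosphorylation measured by ELISA (A450).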
For orientation: An ELISA detects its analyte on a solid surface through an enzyme-linked reagent.

Data set [1] has as its system TNFα release from THP-1 cells. Briefly: Inhibition of TNFα release from LPS-stimulated THP-1 cells, ELISA. Format: cell-based. The settings on record: Homo sapiens, THP-1, THP-1 cells, read-out: [CELL] THP-1, IC50, TNF ALPHA, ELISA. The method in brief:
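Human THP-1 monocytes, 10^6 cells/ml in RPMI with 10% FBS, no serum or 1% HSA, preincubated 30 min at 37 °C with compound (≤0.5% DMSO), then stimulated with 10 μg/ml LPS for 18 h. Supernatant TNFα measured by ELISA; IC50 from non-linear dose-response regression.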

Several values for one entry are separate records, joined by “and”; a condition that tells them apart may be missing. Identical values can stand only once.

T1 sequence (Q16539 whole entry, the tested form may be a part): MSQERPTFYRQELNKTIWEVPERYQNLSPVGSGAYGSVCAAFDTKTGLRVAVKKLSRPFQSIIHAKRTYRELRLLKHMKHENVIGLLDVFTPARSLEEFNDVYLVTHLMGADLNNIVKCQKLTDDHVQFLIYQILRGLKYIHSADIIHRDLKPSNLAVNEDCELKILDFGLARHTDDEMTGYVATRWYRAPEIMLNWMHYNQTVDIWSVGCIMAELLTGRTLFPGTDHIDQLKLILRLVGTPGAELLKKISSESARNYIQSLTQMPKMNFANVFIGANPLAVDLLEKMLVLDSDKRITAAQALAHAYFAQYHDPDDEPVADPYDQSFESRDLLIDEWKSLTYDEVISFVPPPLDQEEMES

Turning to `CC1CCC(Oc2cc(F)cc(C(=O)Nc3ccc(OCCN4CCOCC4)c4ccccc34)c2)C1` (stereo not drawn) [Compound B227, 3-Fluoro-5-[(3-methylcyclopentyl)oxy]-N-[4-(2-morpholin-4-ylethoxy)-1-naphthyl]benzamide], the melting point (as a rule, the temperature of the solid-liquid transition) was in the range of 65 to 66 °C. Also, on p38α, the concentration for half-maximal inhibition (IC50) (usually the concentration at which inhibition is half-maximal) turned out to be 808 nM. In data set [1], the IC50 came out at 4120 nM.

`O=C(Nc1ccc(Oc2ccnc(N3CCCC(O)C3)n2)c2ccccc12)c1cc(F)cc(N2CCOCC2)c1` (stereo not drawn) [Compound B346, 3-Fluoro-N-(4-{[2-(3-hydroxypiperidin-1-yl)pyrimidin-4-yl]oxy}-1-naphthyl)-5-morpholin-4-ylbenzamide] registered a melting point of 180 to 181 °C. Further, the IC50 on p38α came to 5.2 nM. The IC50 in data set [1] is 431 nM.

In turn, `COCCN(C)c1nccc(Oc2ccc(NC(=O)c3cc(F)cc(N4CCCCC4)c3)c3ccccc23)n1` [Compound B414, 3-Fluoro-N-[4-({2-[(2-methoxyethyl)(methyl)amino]pyrimidin-4-yl}oxy)-1-naphthyl]-5-piperidin-1-ylbenzamide] returned a melting point of 81 to 82 °C. The IC50 on p38α turned out to be 28.9 nM. Also, the IC50 in data set [1] worked out at 580 nM.

On to `CCn1c(COc2ccc(NC(=O)c3cc(F)cc(N4CCC(C)CC4)c3)c3ccccc23)n[nH]c1=O` [Compound B220, N-[4-(4-Ethyl-5-oxo-4,5-dihydro-1H-[1,2,4]triazol-3-ylmethoxy)-naphthalen-1-yl]-3-fluoro-5-(4-methyl-piperidin-1-yl)-benzamide], for which the melting point lay in the range of 240 to 241 °C. The IC50 at p38α stood at 145 nM. Besides, in data set [1], the concentration for half-maximal inhibition (IC50) was 2870 nM.

Regarding `CN(C)C1CCN(c2nccc(Oc3ccc(NC(=O)c4cc(F)cc(N5CCCCC5)c4)c4ccccc34)n2)C1` (stereo not drawn) [Compound B420, N-[4-({2-[3-(Dimethylamino)pyrrolidin-1-yl]pyrimidin-4-yl}oxy)-1-naphthyl]-3-fluoro-5-piperidin-1-ylbenzamide], the melting point lay in the range of 108 to 110 °C. Further, the IC50 at p38α was found to be 15.2 nM. In data set [1], the IC50 stood at 225 nM.

`C[C@@H]1CN(c2nccc(Oc3ccc(NC(=O)c4cc(F)cc(N5CCCCC5)c4)c4ccccc34)n2)C[C@H](C)O1` [Compound B416, N-[4-({2-[(2R,6S)-2,6-Dimethylmorpholin-4-yl]pyrimidin-4-yl}oxy)-1-naphthyl]-3-fluoro-5-piperidin-1-ylbenzamide] gave a melting point of 174 to 176 °C. On p38α, the IC50 was 50.2 nM. Moreover, the half-maximal inhibitory concentration (IC50) in data set [1] amounted to 472 nM.

`C[C@@H]1CN(c2nccc(Oc3ccc(NC(=O)c4cc(F)cc(N5CCOCC5)c4)c4ccccc34)n2)C[C@H](C)O1` [Compound B364, N-[4-({2-[(2R,6S)-2,6-Dimethylmorpholin-4-yl]pyrimidin-4-yl}oxy)-1-naphthyl]-3-fluoro-5-morpholin-4-ylbenzamide] yielded a melting point of 118 to 120 °C. Further, the 50% inhibitory concentration (IC50) at p38α was determined as 27.3 nM. The half-inhibitory concentration (IC50) in data set [1] stood at 412 nM.

For the compound `CSc1nccc(Oc2ccc(NC(=O)c3cccc(OC(C)(C)C)c3)c3ccccc23)n1` [Compound B306, 3-tert-Butoxy-N-[4-(2-methylsulfanyl-pyrimidin-4-yloxy)-naphthalen-1-yl]-benzamide], the melting point was in the range of 135 to 136 °C. At p38α, the IC50 came to 74.5 nM. In addition, the concentration for half-maximal inhibition (IC50) in data set [1] was determined as 152 nM.

For the compound `O=C(Nc1ccc(OCCc2cccnc2)c2ccccc12)c1cc(F)cc(N2CCOCC2)c1` [Compound B190], the melting point was 80 to 82 °C. Also, the IC50 on p38α is 826 nM. Further, the IC50 in data set [1] turned out to be 7520 nM.

The compound `O=C(Nc1ccc(OCc2ccncc2)c2ccccc12)c1cc(F)cc(OC2CCCCC2)c1` [Compound B235, 3-(Cyclohexyloxy)-5-fluoro-N-[4-(pyridin-4-ylmethoxy)-1-naphthyl]benzamide] showed a melting point of 176 to 178 °C. Moreover, on p38α, the IC50 was 125 nM. In data set [1], the concentration for half-maximal inhibition (IC50) is 557 nM.

`CCN1CCN(c2nccc(Oc3ccc(NC(=O)c4cc(F)cc(N5CCCCC5)c4)c4ccccc34)n2)CC1` [Compound B398, N-(4-{[2-(4-Ethylpiperazin-1-yl)pyrimidin-4-yl]oxy}-1-naphthyl)-3-fluoro-5-piperidin-1-ylbenzamide] had a melting point of 86 to 87 °C. In addition, the IC50 on p38α stood at 7.9 nM. The half-inhibitory concentration (IC50) in data set [1] stood at 241 nM.

The compound `O=C(Nc1ccc(OCc2ccncc2)c2ccccc12)c1cc(F)cc(N2CCCCC2)c1` [Compound B230, 3-Fluoro-5-piperidin-1-yl-N-[4-(pyridin-4-ylmethoxy)-1-naphthyl]benzamide] displayed a melting point of 69 to 71 °C. Also, on p38α, the IC50 stood at 25.7 nM. Further, in data set [1], the half-maximal inhibitory concentration (IC50) was 630 nM.

`CC1CCCN1c1cc(F)cc(C(=O)Nc2ccc(OCCN3CCOCC3)c3ccccc23)c1` (stereo not drawn) [Compound B208, 3-Fluoro-5-(2-methylpyrrolidin-1-yl)-N-[4-(2-morpholin-4-ylethoxy)-1-naphthyl]benzamide]: the melting point fell in the range of 108 to 111 °C. Moreover, on p38α, the half-maximal inhibitory concentration (IC50) is 167 nM. Further, the IC50 in data set [1] turned out to be 3640 nM.

`O=C(Nc1ccc(OCCCN2CCC3(CC2)OCCO3)c2ccccc12)c1cc(F)cc(N2CCCCC2)c1` [Compound B166, N-{4-[3-(1,4-Dioxa-8-aza-spiro[4.5]dec-8-yl)-propoxy]-naphthalen-1-yl}-3-fluoro-5-piperidin-1-yl-benzamide] returned a melting point of 70 to 72 °C. Further, at p38α, the IC50 worked out at 4810 nM.

Regarding `O=C(Nc1ccc(OCCN2CCCC2=O)c2ccccc12)c1cc(F)cc(N2CCOCC2)c1` [Compound B224, 3-Fluoro-5-morpholin-4-yl-N-{4-[2-(2-oxopyrrolidin-1-yl)ethoxy]-1-naphthyl}benzamide], the melting point was in the range of 172 to 173 °C. In addition, the IC50 on p38α is 6550 nM.

For `O=C(Nc1ccc(OCCN2CCOCC2)c2ccccc12)c1cc(F)cc(OC2CCOCC2)c1` [Compound B226, 3-Fluoro-N-[4-(2-morpholin-4-ylethoxy)-1-naphthyl]-5-(tetrahydro-2H-pyran-4-yloxy)benzamide], the melting point is 75 to 77 °C. Besides, at p38α, the half-maximal inhibitory concentration (IC50) came out at 5390 nM.

Compound `O=C(Nc1ccc(OCCN2CCCC2=O)c2ccccc12)c1cc(F)cc(N2CCCCC2)c1` [Compound B181, 3-Fluoro-N-{4-[2-(2-oxopyrrolidin-1-yl)ethoxy]-1-naphthyl}-5-piperidin-1-ylbenzamide] showed a melting point of 161 to 162 °C. Further, the IC50 on p38α was found to be 2350 nM.

Turning to `O=C(Nc1ccc(OCc2ccncc2)c2ccccc12)c1cc(F)cc(N2CCOCC2)c1` [Compound B191, 3-Fluoro-5-morpholin-4-yl-N-[4-(pyridin-4-ylmethoxy)-1-naphthyl]benzamide], the melting point lay in the range of 157 to 159 °C. Also, at p38α, the IC50 is 52.7 nM and 61 nM.

`CCC1CCC(Oc2cc(F)cc(C(=O)Nc3ccc(OCc4ccncc4)c4ccccc34)c2)CC1` (stereo not drawn) [Compound B228, 3-[(4-Ethylcyclohexyl)oxy]-5-fluoro-N-[4-(pyridin-4-ylmethoxy)-1-naphthyl]benzamide]: the melting point was in the range of 93 to 95 °C. Also, the IC50 on p38α is greater than 10000 nM.

In turn, `O=C(Nc1ccc(OCc2ccoc2)c2ccccc12)c1cc(F)cc(N2CCCCC2)c1` [Compound B180, 3-Fluoro-N-[4-(3-furylmethoxy)-1-naphthyl]-5-piperidin-1-ylbenzamide] showed a melting point of 152 to 153 °C. Besides, the IC50 on p38α worked out at 4040 nM.

In turn, `O=C(Nc1ccc(Oc2ccnc(N3CCCC3)n2)c2ccccc12)c1cc(F)cc(N2CCCCC2)c1` [Compound B377, 3-Fluoro-piperidin-1-yl-N-{4-[(2-pyrrolidin-1-ylpyrimidin-4-yl)oxy]-1-naphthyl}benzamide] returned a melting point of 111 to 113 °C. Moreover, in data set [1], the half-inhibitory concentration (IC50) turned out to be 515 nM.

Take `CC(=O)N1CCN(c2cc(C(=O)Nc3ccc(OCCN4CCOCC4)c4ccccc34)ccn2)CC1` [Compound B123, 2-(4-Acetyl-piperazin-1-yl)-N-[4-(2-morpholin-4-yl-ethoxy)-naphthalen-1-yl]-isonicotinamide]: the inhibition at 10 µM on p38α was found to be 50.5%. Also, the values for the 50% inhibitory concentration (IC50) (at p38α; in data set [1]) were 5750 nM and 6150 nM, respectively.

`Cc1ccc(C(=O)Nc2ccc(OCCN3CCOCC3)c3ccccc23)cc1Br` [Compound B37]: the values for the IC50 (on p38α; in data set [1]) were greater than 100000 nM and greater than 10000 nM, respectively.

Regarding `CC1CN(c2cc(F)cc(C(=O)Nc3ccc(OCCN4CCOCC4)c4ccccc34)c2)CC(C)O1` (stereo not drawn) [Compound B211], the half-maximal inhibitory concentration (IC50) (on p38α; in data set [1]) was greater than 10000 nM throughout.

As for `O=C(Nc1ccc(OCCN2CCOCC2)c2ccccc12)c1cc(F)cc(N2CCN(c3ccc(F)cc3)CC2)c1` [Compound B203], the IC50 (at p38α; in data set [1]) was greater than 10000 nM in each case.

With `O=C(Nc1ccc(OCCN2CCOCC2)c2ccccc12)c1ccnc(N2CCC(O)CC2)c1` [Compound B43, 4-Hydroxy-3,4,5,6-tetrahydro-2 H-[1,2′]bipyridinyl-4′-carboxylic acid [4-(2-morpholin-4-yl-ethoxy)-naphthalen-1-yl]-amide], the results for the half-maximal inhibitory concentration (IC50) (at p38α; in data set [1]) were greater than 10000 nM and 2720 nM, respectively.

With `CCOC(=O)C1CCN(CCOc2ccc(NC(=O)c3cc(F)cc(N4CCCCC4)c3)c3ccccc23)CC1` [Compound B160, 1-{2-[4-(3-Fluoro-5-piperidin-1-yl-benzoylamino)-naphthalen-1-yloxy]-ethyl}-piperidine-4-carboxylic acid ethyl ester], at p38α, the inhibition at 10 µM came to 58.5% and the IC50 was determined as 1820 nM. The half-maximal inhibitory concentration (IC50) in data set [1] is greater than 10000 nM.

The record behind these values is patent US7829560B2, “1,4-disubstituted naphthalenes as inhibitors of P38 MAP kinase” (Arqule, Inc., priority 2004, dated 2010).
